In patent publication EP1255553B1 (Stegram Pharmaceuticals Limited, priority 2000, dated 2001):
Entries after “also recorded” stand apart in the source; their conditions may differ. Read-outs that look alike come from different tables or passages of the source.

Legend:
[1] = tested on: oestrogen receptor isoforms; test: Isoelectric focusing (IEF) of 3H oestradiol binding to oestrogen receptor isoforms in tissue cytosol; set-up: species or system rat; details: Trilostane 10 micromolar, 3H oestradiol 5nM
[2] = tested on: rat uterine oestrogen receptors; test: Scatchard analysis of tritiated oestradiol binding, rat uterus; details: Figure 2, Trilostane at 10micromolar
Experimental: (§1) Using tissue, snap frozen at time of excision, cytosols were prepared by dismembration using a Braun II Mikrodismembrator. Frozen tissue was minced and pulverised. The resultant powder was resuspended in 1-mm phosphate buffer containing 10% (v/v) glycerol, 1.5mm EDTA, 10mM monothioglycerol, 20mM Sodium molybdate, aprotinin (1ug/ml) and STI (1ug/ml) and phenyl methyl sulfonyl fluoride (30ug/ml) at pH 7.4 by stirring for 15 minutes at 4°C. This suspension was centrifuged at 100,000g for 1 hour at 4°C and the supernantant was used for competition analysis.
(§2) After overnight incubation at 4°C assay tubes were incubated with DCC as above to remove free steroid and aliquots of the resultant supernatant were incubated with toluene based scintillant and counted on a Scintillation Counter. Data obtained was analysed according to the method of Scatchard.

[3] = tested on: rat prostate oestrogen receptors; test: Scatchard analysis of tritiated oestradiol binding, rat prostate; set-up: dose or concentration left out as unconfirmed; details: Figure 3
Experimental: as §1, §2

[4] = tested on: oestrogen receptor isoforms in rat uterus; test: Tritiated tamoxifen binding to oestrogen receptor isoforms (IEF); details: Figure 5, test compound 10 micromolar, tritiated tamoxifen 10^-6M
Experimental: as §1
After overnight incubation free steroid was separated from bound by incubating with dextran coated charcoal (0.25% w/v charcoal, 0.025% w/v Dextran T70 in 10mM Tris 1.5mM EDTA at pH 7.4) for 10 mins at 4°C. The DCC was pelleted by centrifugation (10,000g for 10 mins) and aliquots of the supernatant were used for IEF separation.
Isoelectric focusing (IEF) gels were cast in slabs of size 125 x 260 mm and separation was conducted along either the short side (short run) or the long side (long run) of the gel. […]
After DCC extraction, aliquots (270ul) of the radioactive supernatant (3 mg protein/ml) derived from SSD assay were loaded near the cathode. […] After the run the gels were cut into 2.5 mm slices and each slice was incubated with 5ml scintillation cocktail for 24h at room temperature and radioactivity assayed.

[5] = tested on: oestrogen response element driven GFP gene in MCF-7 breast cancer cell line; test: Oestrogen reporter plasmid xTG (GFP) transcriptional activity in MCF-7 cells; format: cell-based; details: compound at 10^-6M plus E2 at 10^-8M; MCF-7 transiently transfected with xTG for three days
Description: XTG consists of a oestrogen response element. Upstream of a simple TATA promoter which together drive transcription of the GFP gene from the jellyfish Aequorea victoria. The xERE sequence is made up of the following - GGTCA CAG TGACC […] (SEQUENCE ID NO: 1)
The GFP gene - from GFPuv was supplied by Clontech (Clontech Laboratories, Inc., 1020 East Meadow Circle, Palo Alto, CA 94303-4230, USA)
E2 was used at a concentration of 10^-8M while all other compounds were used at 10^-6M. All ligands were added to cell media during transfection.

[6] = tested on: MCF-7 cells; test: Thymidine labeling of MCF-7 cells; format: cell-based
Experimental: MCF-7 cells were plated out in multiwell dishes and grown for 24 hours in serum free medium (MEM). […] Radiolabelled thymidine was added to each well ([…]) and cells were then cultured for a further 24 hours. At the end of this period the medium was aspirated and the cultured cells were rinsed 3-times with cold buffer solution(50mm Tris-HCl, pH 7.4). The cells were then dissolved in 1ml of 0.1N NaOH and 0.5ml of this solution was mixed with 2.5ml of Scintillation cocktail and the intracellular radioactivity of ^3H was measured with a liquid scintillation counter.

[7] = advanced breast cancer, cited from earlier work
[8] = target: oestrogen receptor present in MCF-7 breast cancer cell extracts / oestrogen response element (Homo sapiens, UniProt P03372); test: Electrophoretic mobility shift assay (EMSA) of ER-ERE complex formation in extracts of treated MCF-7 cells; format: cell-based; details: MCF7, 24 h, read-out: ER-ERE complex formation
oestrogen receptor present in MCF-7 breast cancer cell extracts / oestrogen response element, sequence (P03372 whole entry): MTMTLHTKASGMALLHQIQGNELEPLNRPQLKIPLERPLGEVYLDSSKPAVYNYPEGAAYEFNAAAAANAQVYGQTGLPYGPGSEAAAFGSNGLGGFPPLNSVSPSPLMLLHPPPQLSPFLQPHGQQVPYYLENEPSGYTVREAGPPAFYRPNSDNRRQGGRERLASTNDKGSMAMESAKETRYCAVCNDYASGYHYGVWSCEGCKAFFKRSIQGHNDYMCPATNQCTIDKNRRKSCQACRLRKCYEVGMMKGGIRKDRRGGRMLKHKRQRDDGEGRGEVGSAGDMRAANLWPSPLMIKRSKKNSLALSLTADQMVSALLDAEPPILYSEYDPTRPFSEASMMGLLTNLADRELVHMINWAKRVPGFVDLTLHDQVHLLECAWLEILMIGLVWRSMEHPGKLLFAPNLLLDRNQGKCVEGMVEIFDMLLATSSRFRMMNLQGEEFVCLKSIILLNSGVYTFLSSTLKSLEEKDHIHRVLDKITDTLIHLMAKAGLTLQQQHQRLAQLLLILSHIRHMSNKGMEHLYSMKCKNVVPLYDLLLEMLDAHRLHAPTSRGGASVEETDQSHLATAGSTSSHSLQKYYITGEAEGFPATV

[9] = cited from earlier work

With `C[C@]12CC[C@H]3[C@@H](CC[C@@]45O[C@@H]4C(O)=C(C#N)C[C@]35C)[C@@H]1CC[C@@H]2O` [Trilostane, (4α,5α-17β)-4,5-epoxy-3,17-dihydroxyandrost-2-ene-2carbonitrile] the “binding of oestrogen onto the oestrogen receptor isoforms” value [1] was “modulated the binding of oestrogen onto all the oestrogen receptor isoforms but principally onto the pI 6.3 isoform”, the “concentration of total receptor (X axis intercept of Scatchard plot)” value [2] was “increases the apparent affinity of oestrogen binding (given by the slope of the regression lines) and the concentration of total receptor” and the “concentration of total receptor (x axis intercept of Scatchard plot)” value [3] was “increases the concentration of total receptor; also recorded: an increase in receptor concentration”. The “tritiated tamoxifen binding to oestrogen receptor isoforms” value [4] was “increased tritiated tamoxifen binding to oestrogen receptor isoforms”, the “E2-driven transactivation / transcription of GFP” value [5] was “reduced transcription of GFP” and the “blocking of the oestradiol-induced increase in thymidine labeling” value ([6]; E2+T: Oestradiol 10^-8 M and Trilostane 10µM, 24 hours) was “completely blocked”. The inhibition at 10 µM ([6]; Homo sapiens, MCF7, 24 h, read-out: inhibition of thymidine uptake of MCF-7 cells compared with control) was 31%, the response rate ([7]; Ingle J.N. et al 1990) was 38% and the response rate ([7]; Williams C.J. et al 1993) was 29%.

With `C[C@]12CC[C@H]3[C@@H](CC[C@@]45O[C@@H]4C(=O)[C@H](C#N)C[C@]35C)[C@@H]1CCC2=O` [keto-trilostane] the “tritiated tamoxifen binding to oestrogen receptor isoforms” value [4] was “increased tritiated tamoxifen binding to oestrogen receptor isoforms” and the activity at 10 µM [8] was 68%.

`C[C@]12CC[C@@H]3c4ccc(O)cc4CC[C@H]3[C@@H]1CC[C@@H]2O` [oestradiol] showed an activation at 0.01 µM ([6]; Homo sapiens, MCF7, 24 h, read-out: increase in thymidine labeling compared to control) of 15%.

For `O=C(c1ccc(OCCN2CCCCC2)cc1)c1c(-c2ccc(O)cc2)sc2cc(O)ccc12` [raloxifene], the “E2-driven transactivation / transcription of GFP” value [5] was “reduced E2-driven transactivation”.

For `CC/C(=C(\c1ccccc1)c1ccc(OCCN(C)C)cc1)c1ccccc1` [tamoxifen], the “E2-driven transactivation / transcription of GFP” value [5] is listed as “reduced E2-driven transactivation”, the “reduction of the risk of invasive breast cancer” value ([9]; all women, two-sided P<.00001) is listed as 49% and the “occurrence of oestrogen receptor-negative tumors” value ([9]; in vivo) is listed as “no difference”. The “reduction of the occurrence of oestrogen receptor-positive tumors” value ([9]; in vivo) was 69%, the “cumulative incidence of invasive breast cancer” value ([9]; through 69 months of follow-up, tamoxifen group) was 22.0 per 1000 women and the “reduction of the risk of noninvasive breast cancer” value ([9]; two-sided P<.002) was 50%. For the same molecule, the “decreased risk of invasive breast cancer” value ([9]; women aged 49 years or younger) was 44%, the “decreased risk of invasive breast cancer” value ([9]; women aged 50-59 years) was 51% and the “decreased risk of invasive breast cancer” value ([9]; women aged 60 years or older) was 55%. For the same molecule, the “decreased risk of invasive breast cancer” value ([9]; women with a history of atypical breast hyperplasia) was 86% and the “decreased risk of invasive breast cancer” value ([9]; women with a history of breast lobular carcinoma in situ) was 56%.
